What was measured:
[1] = test system: Tel22 (DNA, G4) AGGGTTAGGGTTAGGGTTAGGG; experiment: UV thermal melting at 260 nm; conditions: Na+ (sodium cacodylate, I = 0.1 M), pH 7.0, Tel22 1–2 µM, r [compound]/[Tel22] = 4
[2] = test system: poly dAdT-poly dAdT (DNA, polymer) AT; experiment: UV thermal melting at 260 nm; conditions: Na+ (sodium cacodylate, I = 0.05 M), pH 7.0, polynucleotide 20 µM nucleotide, r [compound]/[polynucleotide] = 0.3, error ±0.5 °C, per base
[3] = test system: poly rA-poly rU (RNA, polymer) A/U; experiment: UV thermal melting at 260 nm; conditions: Na+ (sodium cacodylate, I = 0.05 M), pH 7.0, polynucleotide 20 µM nucleotide, r [compound]/[polynucleotide] = 0.3, error ±0.5 °C, per base
[4] = test system: Tel22 (DNA, G4) AGGGTTAGGGTTAGGGTTAGGG; experiment: fluorimetric titration, SPECFIT; conditions: Na+ (sodium cacodylate, I = 0.1 M), pH 7.0, <0.1% DMSO
[5] = test system: poly dAdT-poly dAdT (DNA, polymer) AT; experiment: fluorimetric titration, Scatchard; conditions: Na+ (sodium cacodylate, I = 0.05 M), pH 7.0, per phosphate (nucleotide), n fixed at 0.2, <0.1% DMSO, per base
[6] = test system: poly dGdC-poly dGdC (DNA, polymer) GC; experiment: fluorimetric titration, Scatchard; conditions: Na+ (sodium cacodylate, I = 0.05 M), pH 7.0, per phosphate (nucleotide), n fixed at 0.2, <0.1% DMSO, per base
[7] = Na-cacodylate buffer, concentration as oligonucleotide

Row | Structure (SMILES) | binding [1] | ΔTm [2] | ΔTm [3] | log K1 [4, 7] [log K] | log Ks [5] [log Ks] | log Ks [6] [log Ks] | log K1 ([4]; Na-cacodylate, second step LG + G = LG2 log K2 5.07 ± 0.26) [log K]
1 | NC(N)=Nc1cc2ccccc2c2ccccc12 |  | +0.9 °C | +1.3 °C | 5.61 ± 0.02 | 6.27 | 5.34 | 
2 | N=C(N)Nc1ccc(-c2c3nc(c(-c4ccccc4)c4ccc([nH]4)c(-c4ccccc4)c4nc(c(-c5ccccc5)c5ccc2[nH]5)C=C4)C=C3)cc1 |  |  |  |  |  |  | 7.23 ± 0.49

Other lines, results leading:

Row | binding [1] | ΔTm [2] | ΔTm [3] | log K1 [4, 7] [log K] | log Ks [5] [log Ks] | log Ks [6] [log Ks] | log K1 ([4]; Na-cacodylate, second step LG + G = LG2 log K2 5.07 ± 0.26) [log K] | Structure (SMILES)
3 | weak | 0 °C | 0 °C | 5.36 ± 0.07 | 4.17 |  |  | N=C(N)Nc1ccc2ccccc2c1
4 |  | 0 °C | −1.0 °C | 5.78 ± 0.08 |  |  |  | N=C(N)Nc1ccc2c(c1)Cc1ccccc1-2
5 |  | 0 °C | +0.9 °C | 5.26 ± 0.13 |  |  |  | N=C(N)Nc1ccc2c3c(cccc13)-c1ccccc1-2
